The values below come from patent US20120172390A1, “METHOD OF TREATING SLEEP DISORDERS USING THE COMBINATION OF EPLIVANSERIN AND ZOLPIDEM” (priority 2009, published 2012).

A short description of data set [1]: Critical Flicker Fusion (CFF) test, next-day morning. Type of data set: in vivo, human.
Data set [2] in a line: Global analysis of the 7 primary psychomotor/cognitive endpoints (multivariate mixed effect model). It counts as in vivo, human.
The nature of data set [3]: Immediate recall of Word list, next-day morning. It counts as in vivo, human.
Data set [4] in a line: Adverse events and tolerability in healthy individuals. As to the method: Single center study employing a two-part, double-blind, randomized, placebo- and active-controlled, 4-way crossover design (FIG. 1). Eligibility criteria included certification of good health, 18-50 years of age, and written informed consent.
Part A (the first part of the study): participants were first administered either one evening dose of flurazepam 30 mg or matching placebo, and after a 21-day washout period, participants were administered the other treatment.
Part B: participants received either an evening dose of eplivanserin 5 mg or matching placebo for 21 days, followed by co-administration with a single dose of zolpidem-IR 10 mg.
After this phase of the study, participants were then administered the reverse treatment sequence.
Adverse events were recorded (Medical Dictionary for Regulatory Activities v9.1). Other measures included vital signs, standard clinical laboratory parameters (biochemistry, hematology, and urinalysis), and electrocardiograms.

In another data set the test system is GABA receptors. The conditions noted are these: unlike benzodiazepines; cited from earlier work.
Data set [5] can be described thus: Delayed Recall of Word Lists, next-day morning. It counts as in vivo, human.
Data set [6] is described as follows: Bond-Lader Visual Analog Scale (VAS), next-day morning. It counts as in vivo, human.
Details of data set [7]: species or system human. The conditions noted are these: in vivo.
For data set [8] the following is noted: in vivo; cited from earlier work.
The nature of data set [9]: Compensatory Tracking Task (CTT), next-day morning. It counts as in vivo, human.
Data set [10] is described as follows: Steady-state levels after repeated administration in the study. Type of data set: in vivo, human. The note with it: after 20 days of repeated administration of eplivanserin 5 mg; also for its active metabolite. As for the experimental part:
As a consequence, cognitive/psychomotor performance was assessed under steady state conditions.

Where [11] appears, read: eplivanserin 5 mg evening dose for 21 days vs placebo, P>0.1.
[12] abbreviates: flurazepam 30 mg single evening dose vs placebo, P=0.0001.

On to `CN(C)CCO/N=C(/C=C/c1ccc(O)cc1)c1ccccc1F` [eplivanserin, (1Z, 2 E)-1-(2-fluorophenyl)-3-(4-hydroxyphenyl)-prop-2-en-1-one-O-(2-dimethylaminoethyl)oxime], for which the “CFF point of subjective equality, mean difference estimate” value in [1] (eplivanserin 5 mg evening dose for 21 days vs placebo, P=0.0002) was −1.01 Hz. Further, the “Overall treatment effect on the 7 primary endpoints (global analysis)” value in data set [2] (eplivanserin 5 mg 21 days alone compared with placebo, P=0.0603) is “not associated with an overall treatment effect”. In [3] (setting [11]), the “Immediate word recall number of correct responses, mean difference estimate” value was −1.04. The “Headache, participants reporting” value in [4] (Part B, eplivanserin 5 mg 21 days, 6/24, placebo also 25%) stood at 25%. In addition, the “Dizziness, somnolence and asthenia, participants reporting” value in data set [4] (Part B, eplivanserin 5 mg 21 days, 7/24, placebo 4.2% (1/24)) was 29.2%. In addition, the Tolerability entry in data set [4] (eplivanserin 5 mg, alone and in combination with zolpidem) is on record as “well tolerated”. For the same molecule, the “Binding to GABA receptors” value with GABA receptors is “does not bind”. The “Delayed word recall number of correct responses, mean difference estimate” value in [5] (setting [11]) is −0.33. Moreover, the “Bond and Lader visual analogue scale alertness, mean difference estimate” value in data set [6] (setting [11]) is listed as 9.38. Besides, the “CRT total reaction time, mean difference estimate” value in [7] was -10.40 ms. For the same molecule, the Absorption in data set [8] is on record as greater than 70%. In data set [9] (setting [11]), the “Compensatory tracking task overall average response time, mean difference estimate” value was 13.03 ms and the “Compensatory tracking task overall average tracking errors, mean difference estimate” value was −0.22 pixels. For the same molecule, the Steady-state levels entry in data set [10] is reported as “Steady-state levels were reached”.
For `Cc1ccc(-c2nc3ccc(C)cn3c2CC(=O)N(C)C)cc1` [zolpidem], the Adverse events reported in data set [4] (Part B, co-administration phase with single dose zolpidem-IR 10 mg) is on record as 1/24.
`CCN(CC)CCN1C(=O)CN=C(c2ccccc2F)c2cc(Cl)ccc21` [flurazepam, reference compound]: the “CFF point of subjective equality, mean difference estimate” value in data set [1] (flurazepam 30 mg single evening dose vs placebo, P=0.2005) was −0.52 Hz. The “Overall treatment effect on the 7 primary endpoints (global analysis)” value in [2] (flurazepam 30 mg single dose compared with placebo, P=0.0001) is on record as “associated with an overall treatment effect”. Besides, the “Immediate word recall number of correct responses, mean difference estimate” value in [3] (setting [12]) is listed as −3.08. Further, in data set [4] (Part A, flurazepam 30 mg single dose, healthy individuals), the Adverse events reported is 2/24. In data set [5] (setting [12]), the “Delayed word recall number of correct responses, mean difference estimate” value is on record as −4.38. Further, in data set [6] (flurazepam 30 mg single evening dose vs placebo, P=0.0031), the “Bond and Lader visual analogue scale alertness, mean difference estimate” value was 62.38. The “CRT total reaction time, mean difference estimate” value in [7] is 47.46 ms. Moreover, the “Compensatory tracking task overall average response time, mean difference estimate” value in data set [9] (flurazepam 30 mg single evening dose vs placebo, P=0.0029) is reported as 49.98 ms. In addition, the “Compensatory tracking task overall average tracking errors, mean difference estimate” value in data set [9] (flurazepam 30 mg single evening dose vs placebo, P=0.0221) is recorded as 1.64 pixels.
